For orientation: melting point means the temperature of the solid-liquid transition.

In turn, `C[Si](C)(C)c1ccc(O)cc1` yielded a melting point of 76 °C. Next, `COC(=O)c1ccc2c(c1)N(C(=O)c1ccc(C3CCCCC3)cc1)Cc1cccn1C2`: 174 to 176 °C; `CCCCC1NC(C(=O)O)CS1` (mixture of isomers): 195 °C; `COc1cc(/C=C/C=C/C=O)ccc1OCc1nc(-c2ccccc2)oc1C`: 133 to 134 °C.

For the molecule `CS(=O)(=O)Nc1ccc2c(c1)CCN(Cc1ccc3cc(NS(C)(=O)=O)ccc3n1)CC2`, the melting point is 207 to 210 °C. With `O=C(N[C@H]1CC[C@H](CCN2CCN(c3nccc4c3CCO4)CC2)CC1)c1ccc(Cl)cc1` the figure was 226 °C. On to `O=C(O)[C@@H](Cc1ccccn1)Nc1cc(-c2ccc(OCc3ccccc3)cc2)ncn1`, for which the melting point turned out to be 142 °C. Next, `O=C(c1ccccc1)c1nc(-c2ccncc2)cs1`: 135 to 136 °C. With `O=C1C(=O)c2ccccc2C2=C1SCC1(CCOCC1)O2` the figure was 195 to 197 °C; with `Cn1nnc2cc(OC3SCC(O)C(O)C3O)ccc21` (stereo unspecified), 220 °C.

With `CCN(CC)S(=O)(=O)c1ccc(Oc2ccc(S(=O)(=O)C(F)(F)F)cc2)cc1`, the melting point was 83 to 84 °C. In the case of `CC1(C)OC(c2ccc(S(C)(=O)=O)cc2)=C(c2ccc(S(C)(=O)=O)cc2)C1=O`, the melting point was in the range of 245 to 257 °C. Next, `O=c1ccc([N+](=O)[O-])cn1[C@@H]1c2ccccc2OCC[C@H]1O` (relative stereo): 152 to 155 °C; `Cc1cc(OC(F)F)nc(N)n1`: 136 to 137 °C.

Regarding `CCCn1c(=O)c2[nH]c(-c3cc(C)n(CC(=O)Nc4ccc(OC)cc4)n3)nc2n(CCC)c1=O`, the melting point lay within 293 to 296 °C. With `COC1COC(c2ccccc2)OC1` (stereo unspecified) the figure was 51 °C; with `COc1cnc(NCCCOc2cccc(CN3CCCCC3)c2)[nH]c1=O`, 148 to 150 °C.

Molecule `O=C(CON1C(=O)c2ccccc2C1=O)NOCc1ccccc1` came in with a melting point of 118 to 120 °C. Next, `CC1(C)Cc2c(c(N3CCOCC3)nc3sc4c(N(CCO)CCN5CCOCC5)ncnc4c23)CO1`: 112 to 113 °C; `COc1ccc(-c2cc3cc(F)c(F)cc3[nH]2)cc1NC(=S)NCCO`: 191 to 193 °C. Next, `CCCc1c(N)c(N)cc2c(=O)cc(C(=O)OC)oc12`: 221 to 222 °C; `Cc1ncc(CCCN2C(=O)c3ccccc3C2=O)s1`: 75 °C. With `CC(Cc1cccc(C(F)(F)F)c1)N(CC(=O)O)Cc1ccccc1` (stereo unspecified) the figure was 80 °C.

As to `COc1ccc(Cl)cc1C(CCO)c1ccccc1` (stereo unspecified), the melting point came to 80 °C. Turning to `Cc1ccc(C)c([PH](=O)O)c1`, the melting point was in the range of 73 to 80 °C. On to `COc1ccc2c(c1OC)CC1C(=O)N(Cc3ccccc3)C(=O)C21` (stereo unspecified), for which the melting point fell in the range of 130 to 132 °C. Molecule `CCOC(=O)c1csc2nc(C(=O)OC)cn12` registered a melting point of 187 to 189 °C. With `C=CCNC(=O)C(O)C1OC(n2cnc3c(N)ncnc32)C(O)C1O` (stereo unspecified) the figure was 136 to 138 °C; with `O=[N+]([O-])c1ccc(C#Cc2ccccc2)c(-c2cc([N+](=O)[O-])ccc2C#Cc2ccccc2)c1`, 216 to 218 °C; with `O=[N+]([O-])c1cc2cc(Br)ccc2nc1Cl`, 203 °C.

Turning to `O=Cc1ccc(-c2ccc(C(=O)O)cc2)c([N+](=O)[O-])c1`, the melting point was 227 to 235 °C. With `CSC(SC)=C1CCC2CC=CC=C2C1=O` (stereo unspecified) the figure was 54 to 56 °C; with `O=C(c1ccc(-c2cc[nH]n2)cc1)N1Cc2cccn2Cc2ccccc21`, 219 to 221 °C. Next, `CCOC(=NC#N)N[C@@H]1c2cc(C#N)ccc2OC(C)(C)[C@H]1O` (relative stereo): 193 to 196 °C. Next, `O=C(c1cc(N2CCOCC2)ccn1)N(O)Cc1ccccc1`: 105 to 110 °C. In turn, `CC1c2cccc3c2N(CC3)c2ccccc2N1C(=O)CCCCl` (stereo unspecified) returned a melting point of 88 to 90 °C. On to `COC(=O)c1ccc(C(=O)CC(=O)/C=C/c2ccc(O)c(OC)c2)cc1`, for which the melting point lay within 187 to 189 °C. With `COc1ccc2cc(C#N)ccc2c1Br` the figure was 177 to 178 °C; with `C#Cc1c(C#N)nn(-c2c(Cl)cc(C(F)(F)F)cc2Cl)c1N(C)C`, 145 to 147 °C.

For `CCCOCCc1ccc(-c2ccc3c(c2)C=C(C(=O)Nc2ccc(CN(C)C4CCOCC4)cc2)CCS3(=O)=O)c(Cl)c1`, the melting point is 150 to 152 °C. As to `CC(C)(C)NOC(=O)c1n[nH]c2c(=O)[nH]c3cc(Cl)ccc3c(=O)c12`, the melting point came out at 258 °C. Regarding `O=C(Nc1cc(CCCS(=O)(=O)c2ccc(Cl)cc2)ccc1OCc1nnn[nH]1)c1cccc(OCc2nc3ccccc3s2)c1`, the melting point lay within 189 to 191 °C. With `CC(C)C1C(=O)N(CSc2ccccc2)S(=O)(=O)N1C` (stereo unspecified) the figure was 82 to 83 °C; with `COc1cc(C(=O)c2nc3ccccc3[nH]2)cc([N+](=O)[O-])c1OC`, 212 to 213 °C; with `CCOC(C)c1ccc(OCCOc2ncnc(NS(=O)(=O)c3ccc(C(C)(C)C)cc3)c2-c2ccc(C)cc2)cc1` (stereo unspecified), 139 to 140 °C. `CNS(=O)(=O)c1cc(C)ccc1C=C1c2ccccc2CCc2ccccc21` registered a melting point of 175 °C. With `COC(=O)C(Cl)=Cc1ccc(Cl)cc1` the figure was 78 to 80 °C. With `Cn1cc(-c2cc(-c3cnc4[nH]ccc4c3)ccn2)n(-c2ccc(CC#N)cc2)c1=O` the figure was 252 °C; with `N#Cc1cccc(-c2ccccn2)n1`, 136 to 137 °C; with `O=C(Nc1ccc(-n2nc(C(F)(F)F)cc2C2CC2)nc1)c1c(Cl)cncc1Cl`, 223 to 225 °C.

The molecule `O=C(CCCC1(c2ccccc2)CC(O)=C(SCc2ccccc2)C(=O)O1)NCc1ccccc1` (stereo unspecified) registered a melting point of 48 to 52 °C. Next, `CC(=Nc1ccc(NC(=O)CN)cc1)N(C)C`: 142 to 145 °C; `CCN(CC)c1ccc([N+](=O)[O-])c(C(=O)NCC2CCN(C(c3ccccc3)c3ccccc3)CC2)c1`: 167 to 168 °C; `COc1ccc(C(=O)Nc2ccccc2NC(=O)c2ccc(OC)c(OC)c2)cc1OC`: 191 to 192 °C. Next, `COc1ccc(C(=O)c2ccc(C)cc2)cc1C`: 73 to 75 °C; `CCCOc1ccc(CCCCCC(=O)O)cc1`: 42 to 43 °C. With `O=C(c1ccccc1)c1ccc(-c2nc(COc3ccc(CCCn4ccnc4)cc3)co2)cc1` the figure was 112 to 113 °C; with `N#CCCC(=O)c1cccc(Cl)c1`, 49 to 51 °C; with `CCCCCCCCC(O)CNCCCCCCNCC(O)CCCCCCCC` (stereo unspecified), 118 to 127 °C. `CCCCc1nc2cccc(C#N)c2n1Cc1ccccc1Cl` showed a melting point of 124 to 127 °C. With `CCn1c(=O)c2c(nc(/C=C/c3ccc4c(c3)OCO4)n2C)n(CC)c1=O` the figure was 219 to 220 °C; with `CCOC(=O)c1ccc(C#C[Si](C)(C)C)nc1`, 55 °C. Next, `CCn1nnc(-c2ccc(C(=O)N[C@@H]3CCCC[C@@H]3c3ccc(OC)c(OC)c3)cc2)n1`: 188 to 192 °C; `Cc1ccc(-n2c(-c3ccc(C#C[Si](C)(C)C)cc3)ccc2-c2ccc(C#C[Si](C)(C)C)cc2)cc1`: 223 to 224 °C; `CC1(O)CC(C)(C)c2ccc(Oc3ccc([N+](=O)[O-])cc3)cc2O1` (stereo unspecified): 159 to 160 °C. The molecule `CC1OC(=O)Nc2ccc(-c3cccc(Cl)c3)cc21` (stereo unspecified) returned a melting point of 155 to 156 °C. Regarding `O=C(C=Cc1cccc(O)c1)C=Cc1cccc(O)c1`, the melting point is 190 to 195 °C. With `CC(CN1CCN(C)CC1)OC(=O)c1c[nH]c2ccccc12` (stereo unspecified) the figure was 166 °C. Regarding `CCCCCCCOc1c(OC)cc([N+](=O)[O-])c2nccc(C)c12`, the melting point was in the range of 52 to 55 °C. Next, `CC1(C)C(=O)N(C(=O)NCC2CCN(CC3(C(=O)O)CCC3)CC2)c2cc(F)ccc21`: 193 °C. With `Cc1cccc(NC(=O)NCC(=O)N(CC(=O)OC(C)(C)C)c2ccccc2-c2ccccc2)c1` the figure was 177 °C.

For the molecule `O=C(c1ccc(F)cc1)C1CCN(CCCC2CCc3onc(-c4ccc(Cl)cc4)c3C2O)CC1` (stereo unspecified), the melting point was in the range of 152 to 155 °C.

`CC(C)(C)OC(=O)c1[nH]c2cc(Cl)cc(Cl)c2c1C=C1CON(c2ccccc2)C1=O` returned a melting point of 120 °C. `COc1cc2c(cc1C(=O)Cc1ccc(C(=O)O)cc1)C(C)(C)CCC2(C)C`: the melting point lay within 164 to 165 °C.

The molecule `O=[N+]([O-])c1cccc(-n2cnc3c([N+](=O)[O-])cccc32)c1` yielded a melting point of 159 to 161 °C. With `CC(C)c1nc(COCc2ccccc2)n(C(C)F)c1Sc1cc(Cl)cc(Cl)c1` (stereo unspecified) the figure was 131 to 132 °C; with `COc1ccc(C2(O)OC(=O)C(c3cc(OC)c4c(c3)OCO4)=C2CC2CCCC2)cc1` (stereo unspecified), 139 to 140 °C; with `CCCN(CCC)C(=O)CNc1ccnc(-c2ccccc2)n1`, 74 to 75 °C.

`CCOc1nn(-c2ccc(C(F)(F)F)cn2)cc1CCCOc1ccccc1CC(=O)O` came in with a melting point of 83 to 84 °C.

The molecule `CC(C)n1nc(-c2sc(NC(=O)c3ccccc3)nc2-c2ccccc2)ccc1=O` returned a melting point of 126 to 129 °C. With `Clc1cc2c(oc3c(Cl)c(Br)c(Cl)c(Br)c32)c(Br)c1Br` the figure was 288 to 290 °C; with `O=C(CSc1nc2ccccc2s1)NC1(C(=O)O)Cc2ccc(-c3ccc(Cl)cc3)cc2C1` (stereo unspecified), 205 to 207 °C. With `c1ccc(CCC2CCN(Cc3c[nH]c4ncccc34)CC2)cc1` the figure was 162 to 163 °C; with `COc1cc(C2Oc3cc(C4Oc5cc(O)cc(O)c5C(=O)C4O)ccc3OC2CO)ccc1O` (stereo unspecified), 167 to 180 °C. With `CC(C)c1nc(CN2C(=O)C3(COc4cc5c(cc43)OCO5)c3c(-c4ccc(N(C)C)nc4)cccc32)cs1` (stereo unspecified) the figure was 164 to 165 °C; with `O=C(O)Cc1cccc2c(=O)cc(-c3cccc(F)c3)oc12`, 208 to 211 °C.

These data come from a melting point compilation (Tetko et al.; mined from patent text by program, amines drawn as free bases though some values may be those of a salt).
